Test results from ChEMBL document CHEMBL1127993, “4-[5-(2,3-dihydroxyphenyl)pentyloxy]-2-hydroxy-3-propylbenzoic acid (Ro 24-0553): an orally active 5-lipoxygenase inhibitor with antiinflammatory activity” (Bioorg Med Chem Lett, 1994).
Calls of active or inactive are those of the source. The calls are words filed in the database; no cut-off is given here.

Assays:
Rattus norvegicus [1] = species: Rattus norvegicus; test: Inhibitory activity against peroxidation of rat cardiac membrane liposomes; format: functional
Rattus norvegicus [2] = test: Inhibitory activity in rat colitis model at an oral dose of 10 mg/kg; IA means inactive; format: functional, organism-based; parameters: dose 10 mg/kg
Homo sapiens [3] = species: Homo sapiens; test: Inhibitory activity against interleukin-1 production by LPS-stimulated human monocytes; IC50 range=4-8 uM; format: functional
Rattus norvegicus [4] = test: Inhibition of neutrophil infiltration at 100 mg/kg in rats; format: functional
Rattus norvegicus [5] = test: In vivo inhibitory activity against acetic acid-induced colitis of rat at 10 mg/kg upon peroral administration; format: functional; conditions: route oral
Mus musculus [6] = test: Inhibition of the AA-induced edema in mouse ear inflammation test at 1 mg; format: functional
Rattus norvegicus [7] = test: Reduction of erythema at 1 mg/kg in acetic acid-induced colitis of the rat; format: functional
Mus musculus [8] = test: Inhibition of the TPA-induced edema in mouse ear inflammation test at a topical dose of 0.4 mg; format: functional
Homo sapiens [9] = species: Homo sapiens; test: Inhibition of LTB4 biosynthesis in human neutrophils
Rattus norvegicus [10] = test: Percent reduction of neutrophil accumulatiom with an minimum effective dose of 1 mg/kg when administered orally twice daily for two days before induction of acetic acid-induced colitis in the rat; format: functional; conditions: route oral
Rattus norvegicus [11] = test: In vivo inhibitory activity against acetic acid-induced colitis of rat at 1 mg/kg upon peroral administration; format: functional; conditions: route oral
Mus musculus [12] = species: Mus musculus; test: Myeloperoxidase activity was determined as a measure of neutrophil infiltration at the 0.4 mg dose in the TPA treated mice; format: functional
Rattus norvegicus [13] = species: Rattus norvegicus; test: Inhibition of PGE-2 biosynthesis in ionophore stimulated rat peritoneal macrophages; format: functional
Mononuclear cell line = test: In vitro inhibitory activity against interleukin-1-beta biosynthesis by isolated human mononuclear cells at 10 uM; format: functional
Mus musculus [14] = species: Mus musculus; test: Myeloperoxidase activity was determined as a measure of neutrophil infiltration at a 0.1 mg dose in the AA treated mice; format: functional
Rattus norvegicus [15] = test: Reduction of necrosis at 1 mg/kg in acetic acid-induced colitis of the rat; format: functional
Rattus norvegicus [16] = species: Rattus norvegicus; test: Inhibition of LTB4 biosynthesis in ionophore-stimulated rat peritoneal macrophages; format: functional
Rattus norvegicus [17] = test: Percent reduction of neutrophil accumulatiom with an minimum effective dose of 100 ug/kg when administered orally twice daily for two days before induction of acetic acid-induced colitis in the rat; format: functional
Rattus norvegicus [18] = species: Rattus norvegicus; test: Inhibitory activity against peroxidation of rat cardiac membrane liposomes at 1 uM concentration; format: functional; conditions: Microsome
[19] = target: T1, Polyunsaturated fatty acid 5-lipoxygenase (Rattus norvegicus, UniProt P12527); test: Inhibition of 5-lipoxygenase from rat basophilic leukemia(RBL-1) cells; format: cell-based
T1 sequence (P12527 whole entry): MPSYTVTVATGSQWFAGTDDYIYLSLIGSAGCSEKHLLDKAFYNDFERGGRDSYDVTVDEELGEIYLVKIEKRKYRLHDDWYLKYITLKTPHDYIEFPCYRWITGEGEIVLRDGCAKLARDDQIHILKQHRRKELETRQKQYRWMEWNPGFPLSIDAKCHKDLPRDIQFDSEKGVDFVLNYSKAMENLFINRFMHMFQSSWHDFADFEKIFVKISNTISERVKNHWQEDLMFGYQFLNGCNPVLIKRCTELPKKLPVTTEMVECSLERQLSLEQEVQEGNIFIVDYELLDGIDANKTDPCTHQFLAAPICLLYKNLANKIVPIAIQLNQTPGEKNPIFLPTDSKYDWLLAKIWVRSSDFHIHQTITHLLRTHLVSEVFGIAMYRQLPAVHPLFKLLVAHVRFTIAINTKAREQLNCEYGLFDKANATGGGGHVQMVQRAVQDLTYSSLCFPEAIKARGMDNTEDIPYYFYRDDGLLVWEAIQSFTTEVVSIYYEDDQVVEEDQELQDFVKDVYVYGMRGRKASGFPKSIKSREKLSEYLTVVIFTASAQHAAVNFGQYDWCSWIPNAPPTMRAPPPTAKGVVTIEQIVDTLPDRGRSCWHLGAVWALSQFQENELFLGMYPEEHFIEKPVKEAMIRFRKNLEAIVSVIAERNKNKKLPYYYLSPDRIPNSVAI

Row | SMILES | IC50 (Rattus norvegicus [1]) | IC50 [19] | inhibition in vivo at 10 mg/kg (Rattus norvegicus [5]) | inhibition (Rattus norvegicus [18]) | further results
1 | CC(Cc1ccc(O)c(O)c1)C(C)Cc1ccc(O)c(O)c1 (configuration not stated) [NORDIHYDROGUAIARETIC ACID] | 100 nM |  |  |  | inhibition (Rattus norvegicus [2]): inactive; IC50 (Homo sapiens [3]): 8000 nM; inhibition in vivo at 100 mg/kg (Rattus norvegicus [4]): 70%
2 | CCCc1c(OCCCCCCc2cccc(O)c2O)ccc(C(=O)O)c1O | 300 nM |  | 89% |  | 
3 | CCCc1cc(C(=O)O)ccc1OCCCCCCc1cccc(O)c1O | 680 nM |  |  |  | 
4 | CCCc1c(OCCCCCc2cccc(O)c2O)ccc(C(=O)O)c1O |  |  |  |  | Inhibition (Mus musculus [6]): 47%; Reduction (Rattus norvegicus [7]): 55%; Inhibition (Mus musculus [8]): 26%; IC50 (Homo sapiens [9]): 1000 nM; Reduction (Rattus norvegicus [10]): 88%; inhibition in vivo at 1 mg/kg (Rattus norvegicus [11]): 88%; Inhibition (Mus musculus [12]): 88%; IC50 (Rattus norvegicus [13]): 35000 nM; inhibition at 10 µM (Mononuclear cell line): 40%; Inhibition (Mus musculus [14]): 86%; Reduction (Rattus norvegicus [15]): 77%; IC50 (Rattus norvegicus [16]): 600 nM; Reduction (Rattus norvegicus [17]): 38%
5 | CCCc1c(OCCc2cccc(O)c2O)ccc(C(=O)O)c1O |  | 250 nM |  | 17% | 
6 | O=C(O)c1ccc(OCCCCCCc2cccc(O)c2O)cc1 |  | 200 nM | 89% | 9% | 
7 | O=C(O)c1ccc(OCCCCCCc2cccc(O)c2O)cc1O |  | 300 nM |  | 33% | inhibition in vivo at 1 mg/kg (Rattus norvegicus [11]): 95%

Now from value to compound, other results behind:

Row | IC50 (Rattus norvegicus [1]) | IC50 [19] | SMILES | inhibition in vivo at 10 mg/kg (Rattus norvegicus [5]) | inhibition (Rattus norvegicus [18]) | further results
8 | 400 nM |  | CCCc1c(OCCCCCCCCCCc2cccc(O)c2O)ccc(C(=O)O)c1O |  |  | 
9 | 500 nM |  | CCCc1c(OCCCCc2cccc(O)c2O)ccc(C(=O)O)c1O | 73% |  | 
10 | 300 nM | 90 nM | CCCc1c(OCCCCCCCCc2cccc(O)c2O)ccc(C(=O)O)c1O | 35% |  | 
11 |  | 170 nM | CCCc1c(OCCCc2cccc(O)c2O)ccc(C(=O)O)c1O | 54% | 35% | 
